PubChem BioAssay AID1626 (SRMLSC, 2009)

System: M. tuberculosis H37Rv growth inhibition
Experiment: M. tuberculosis H37Rv growth inhibitors, H37Rv strain (AID 1626)
Settings: for IC90: measured here: IC90 against H37Rv; for CC50: measured here: Vero cell cytotoxicity

| Compound | IC50 [µM] | IC90 [µM] | CC50 [µM] |
| --- | --- | --- | --- |
| Clc1ccc(Nc2ncn[nH]2)c(Cl)c1 | 6.68 | > 100 | > 40 |
| CCCCn1c(O)c(C(=O)/C=C/c2ccc3c(c2)OCO3)c(=O)[nH]c1=O | 4.53 | 7.66 | > 40 |
| CCOC(=O)C1CCN(c2nc3cc(OC)ccc3cc2C#N)CC1 | 8.91 | 14.2 |  |
| O=C(CN1C(=O)C2C3CCC(C3)C2C1=O)Oc1ccc2ccccc2c1 (stereo unspecified) |  | > 100 |  |
| Cc1ccc(C(=O)Nc2nc(C)c(C(=O)Nc3ccc4c(c3)CCC4)s2)cc1 | 2.67 | 5.77 | 7.56 |
| Cc1sc2nc(-c3ccccn3)[nH]c(=O)c2c1-c1ccccc1 | 0.69 | 1.69 | 15.2 |
| CCOc1ccc(NC(=O)CN2CCN(CC(=O)Nc3ccc(Cl)c(C(F)(F)F)c3)CC2)cc1 | 7.93 | 11.3 | 20.8 |
| N#CC(c1cccc(Cl)c1)c1ccc2c(C(F)(F)F)cc(C(F)(F)F)nc2n1 (stereo unspecified) |  |  | 0.415 |
| Cc1cc(C)nc(/N=C(\N)Nc2ccc(-c3ccccc3)cc2)n1 | 2.74 | 11 | > 40 |
| Cn1ccnc1C(O)c1cc(C(C)(C)C)c(O)c(C(C)(C)C)c1 (stereo unspecified) | 10.3 | 13.8 |  |
| CC1(C)C2CCC1(C)C(NC(=O)/C=C/c1ccccc1)C2 (stereo unspecified) | < 0.195 | 18.1 | > 40 |
| Fc1ccc(-c2nnc(CSc3nnc(-c4cccs4)o3)o2)cc1 |  | > 100 |  |
| O=C(/C=C/c1cccc(Cl)c1)c1nc2ccccc2[nH]1 | 2.94 | 3.34 | 15.3 |
| CCOC(=O)c1sc2nc(C)[nH]c(=S)c2c1C | 39.1 | > 100 |  |
| Cc1cc(NC(=O)c2c(F)cccc2F)n(-c2nc3ccccc3[nH]2)n1 | 11.3 | 21.2 | 35.7 |
| CC1CCCCN1C(=O)COC(=O)/C=C/c1ccc2ccccc2n1 (stereo unspecified) | 0.807 | 5.9 | > 40 |
| Cc1cccc(-n2c(/C=C/c3ccc([N+](=O)[O-])o3)nc3ccccc3c2=O)c1 |  | > 100 | 28.7 |
| CCCCCCc1cc2cc(C(=O)NC)c(=N)oc2cc1O | 4.69 | 7.11 |  |
| O=C(CSc1ccc(-c2ccccn2)nn1)c1ccc(F)cc1 | 22.2 | 36 |  |
| Cc1cc(NC(=O)CCN2C(=O)C3C4C=CC(C4)C3C2=O)ccc1Br (stereo unspecified) | 35.3 | > 100 |  |
| O=C(Nc1ccc(-c2csc(Nc3cccc(C(F)(F)F)c3)n2)cc1)c1cccc(C(F)(F)F)c1 | 0.954 | 1.53 | 17.6 |

| Compound | IC50 [µM] | IC90 [µM] | CC50 [µM] |
| --- | --- | --- | --- |
| O=C(COC(=O)c1ccc(Cl)s1)c1ccc[nH]1 | 8.14 | 16.7 |  |
| C=C1C(=O)O[C@@H]2C[C@@H](C)[C@@H]3C=CC(=O)[C@@]3(C)[C@@H](OC(C)=O)[C@H]12 | 2.07 | 3.51 | 2.02 |
| CCOc1ccc(NCC(=O)Nc2ccc(Cl)cc2C)cc1 | 8.53 | > 100 |  |
| Oc1cccc(-c2nc3ccc4ccccc4c3c3c2CCC3)c1 | 16.8 | 27 | > 40 |
| Cc1cc(C)c2nc(/N=C(\N)NC(=O)Nc3ccccc3)nc(C)c2c1 | 4.02 | 5.93 | > 40 |
| CC1Cc2ccccc2N1C(=O)COC(=O)c1ccc(Br)o1 (stereo unspecified) | 16 | > 100 |  |
| CC(C)C1N=C(c2ccc3c(c2)OCO3)CC(c2ccccc2O)N1 (stereo unspecified) | 10.6 | 14.3 | 26.8 |
| O=C(CCCSc1nnc(SCCCC(=O)c2ccc(F)cc2)s1)c1ccc(F)cc1 | 0.516 | 0.654 | 26.4 |
| CCC(/C=C1\Sc2ccc(OC)cc2N1CCO)=C\c1sc2ccc(OC)cc2[n+]1CCO | 7.29 | 10.2 |  |
| O=C(Nc1nc2ccccc2s1)C1c2ccccc2Oc2ccccc21 |  | > 100 | > 40 |
| O=C(/C=C/c1ccccc1)c1c(O)n(CCc2ccccc2)c(=O)[nH]c1=O | 9.75 | 11.6 | 37.1 |
| CCOc1ccc(N/C=C\C(=O)c2ccc3c(c2)OCO3)cc1 | 4.53 | > 100 |  |
| N#CCc1ccc(NC(=O)/C=C/c2ccc([N+](=O)[O-])o2)cc1 | < 0.391 | < 0.391 | 0.277 |
| CCc1ccc(NC(=O)CSc2nnc(-c3ccccn3)n2C)cc1 |  | > 100 |  |
| c1ccc(CC2CCN(c3nc4ccccc4n4cnnc34)CC2)cc1 | 1.77 | 3.44 | > 40 |
| CC(=O)c1cccc(NC(=O)/C=C/c2ccc([N+](=O)[O-])s2)c1 | 6.51 | 57.4 | > 40 |
| COc1ccc(CCNc2cc(C)nc3c(-c4ccc(Cl)cc4)c(C)nn23)cc1OC | 1 | 5.53 | > 40 |
| Cc1cccc(-c2cc3nc(C)c(C)c(NCCCn4ccnc4)n3n2)c1 | 4.54 | 8.03 | > 40 |
| N#C/C(=C(/O)COC(=O)CCC1CCCCC1)c1nc2ccccc2[nH]1 | 20.2 | 25.1 | > 40 |
| CCOC(=O)c1sc2nc(CSc3ccccc3)nc(N3CCCN(C)CC3)c2c1C | 5.79 | 6.53 | 24.8 |
| CC1CCc2nc(NC(=O)CN3CCN(c4ccccc4)CC3)sc2C1 (stereo unspecified) | 24.6 | > 100 |  |

| Compound | IC50 [µM] | IC90 [µM] | CC50 [µM] |
| --- | --- | --- | --- |
| CCn1c(NC(=O)C2CCCCC2)nc2ccccc21 | 1.86 | > 100 | > 40 |
| CCCCCc1cc(=O)oc2c(C(CCN3CCCCC3)c3ccc(OC)cc3)c(OC)cc(OC)c12 (stereo unspecified) | 2.86 | 3.91 | 14.9 |
| COc1cccc2sc(Nc3nnc(-c4ccc(F)cc4)o3)nc12 | 9.19 | 11.8 | 16 |
| Cc1ccc(Nc2nnc(SCC(=O)Nc3cccnc3Cl)s2)cc1C | 1.63 | 3.5 |  |
| COc1ccc(N=C2C(=O)Nc3c(C)cccc32)cc1 |  | > 100 |  |
| CCC(=O)Nc1cccc(C(=O)/C=C/c2ccccc2)c1 | 22.1 | 28.2 | 10.7 |
| CCCCCCCCCCn1c2c(c(=N)c3c1CCC3)CCC2 | 2.42 | 3.59 | 6.09 |
| CC(C)(c1ccccc1)c1ccc(OCC(O)CNC2CCN(Cc3ccccc3)CC2)cc1 (stereo unspecified) | 4.53 | 6.06 | 6.22 |
| O=C(COc1ccc(Cl)cc1Cl)N1CCN(C/C=C/c2ccccc2)CC1 | 17 | 21.6 | > 40 |
| COC(=O)c1ccnc(SCC(=O)c2ccccc2)c1 | 15.8 | 26.6 |  |
| CC(C)(C)NC(=O)COC(=O)c1cc(Br)ccc1Cl | 11.9 | > 100 |  |
| CCCN(CC1CC1)C(=O)COC(=O)c1ccc2c(c1)C(=O)N(c1ccc(OCC)cc1)C2=O |  | > 100 |  |
| COc1cc(OC)cc(C(=O)Nc2nc3ccccc3[nH]2)c1 | 15.9 | > 100 | > 40 |
| O=C(Nc1nc(-c2ccccn2)cs1)c1cc(Cl)ccc1[N+](=O)[O-] | 0.87 | 2.24 | 2.24 |
| CCOC(=O)C1=C(CC)Nc2ccccc2N=C1NC(=O)Nc1ccc(Cl)c(Cl)c1 | 2.73 | 3.1 | 10.3 |
| CCOC(=O)c1cnc(-n2nc(C)cc2C)nc1NCCc1ccccc1 | 0.688 | 1.06 | > 40 |
| CN1C[C@@H]2C(c3ccc(C(F)(F)F)cc3)C3(c4cccnc4)CC2(C3)[C@H]1c1ccccc1 (stereo partly specified) | 14.1 | 21.4 |  |
| Cc1nnc(NC(=O)c2ccc3ccccc3c2)o1 | 0.719 | 1.46 | > 40 |
| c1ccc(Oc2nc(-c3ccccn3)nc3ccccc23)cc1 | 2.71 | 13.8 | > 40 |
| CCCOC(=O)c1ccc(NC(=O)/C=C/c2cccs2)cc1 | 4.12 | 21.8 |  |
| Cc1ccccc1N1CCN(C2=NC(=O)/C(=C\c3cccs3)S2)CC1 | 14.2 | 21 | > 40 |

| Compound | IC50 [µM] | IC90 [µM] | CC50 [µM] |
| --- | --- | --- | --- |
| CC1(C)CC(=O)C(C=Nc2ccc3c(c2)OCO3)=C(O)C1 |  | > 100 |  |
| CCOC(=O)c1ccc(NC(=O)CCOc2ccc(C)cc2)cc1 | 20.9 | > 100 |  |
| CCOC(=O)N1CCN(CCC(=O)Nc2ccc(C)c(Br)c2)CC1 | 6.69 | 26.2 |  |
| Cc1ccccc1C(=O)Nc1nnc(-c2ccc(F)cc2)o1 | 1.11 | 3.78 | 39.1 |
| CN=C(Nc1cc(Cl)ccc1Cl)SC1CC(=O)N(c2ccc(C(=O)OC)cc2)C1=O (stereo unspecified) | 24.9 | > 100 | > 40 |
| Cc1cc(C)c(C2C3=C(Nc4c2c(C)nn4-c2ccccn2)c2ccccc2C3=O)c(C)c1 (stereo unspecified) | 5.63 | 8.83 | > 40 |
| CCOC(=O)c1cc(-c2csc(COc3ccccc3Cl)n2)on1 | < 0.195 | 3.52 |  |
| Nc1nc2ccccc2n1C(=O)c1ccc(F)cc1 | 1.93 | 4.15 | > 40 |
| CCOc1ccc(NCc2nnc(SCc3ccc(Cl)cc3)n2-c2ccccc2)cc1 |  |  | > 40 |
| COc1ccccc1Sc1nc(-c2ccccn2)ncc1OC | 1.04 | > 100 | 7.61 |
| Cc1ccccc1NC(=O)Nc1ccc(C(F)(F)F)cc1 |  | > 100 | 23.5 |
| CC1(C)CC(NC(=O)c2sc3cc(Cl)ccc3c2Cl)CC(C)(C)N1 |  | > 100 | 12.6 |
| CCOC(=O)N1CCN(c2nc(N(c3ccccc3)c3ccccc3)nc(-n3ccnc3)n2)CC1 | 8.91 | 11.3 | > 40 |
| Clc1cccc2c1Sc1ccccc1CC2N1CCNCC1 (stereo unspecified) | 3.12 | 6.58 | 11.2 |
| CSc1ccc(/C=C/C(=O)c2ccc(NC(C)=O)cc2)cc1 | 28.4 | > 100 |  |
| CCOc1ccc(Nc2nc(N)nc(CN3CCN(c4ccccc4F)CC3)n2)cc1 | 7.83 | 16.8 |  |
| COc1ccc(C(CCN2CCCCC2)c2c(OC)cc(OC)c3c(-c4ccccc4)cc(=O)oc23)cc1 (stereo unspecified) | 7.16 | 10.9 | 16 |
| CC(C)Nc1ccc(Nc2ccnc3cc4ccccc4cc23)cc1 | 5.31 | 9.7 | 3.3 |
